Source: US20240287139A1, “A NOVEL COMPOUND ACTING AGAINST A SELECT GROUP OF BACTERIA” (priority 2021, published 2024)
Values after ≈ are worked out from the molar mass of the structure shown. Read-outs that look alike come from different tables or passages of the source. *1 amine or outer side, *2 acyl side, *3 side chain or, on linkers, in order; H or OH if unused. Where a SMILES comes first, the peptide text is derived from it. Bridges are numbered along the chain shown (N, C = ends). [ ]: non-standard residue; d: D form. The star is where a group is joined. ξ: configuration not given here. ξThr(3R)(O-yl) = C[C@@H](O[*:3])C(N[*:1])C(=O)[*:2]; βAsp = O=C(O)[C@H](CC(=O)[*:2])N[*:1]; His(π-Me) = Cn1cncc1C[C@H](N)C(=O)O; For = O=C*

Experiments:
[1] = tested on: Mycobacterium tuberculosis H37Rv mc^26020; test: microbe, parasite or virus in culture; type: cell-based
[2] = tested on: Enterococcus faecalis KLE 2341; test: microbe, parasite or virus in culture; type: cell-based; details: KLE2341; Enterococcus faecalis KLE 2341, anaerobic conditions, human stool isolate
MtbGyrase [3] = biological target: T1, MtbGyrase (Mycobacterium tuberculosis, UniProt P9WG45+P9WG47); type: biochemical, M. tuberculosis; details: 100 μM compound, 0-20 nM enzyme
HepG2 [4] = tested on: HepG2
HepG2 [5] = test: cells; details: Homo sapiens, HepG2, read-out: Human cell line (IC50)
Escherichia coli ΔtolC = test: microbe, parasite or virus in culture; type: cell-based
[6] = tested on: Mycobacterium smegmatis mc^2155; test: microbe, parasite or virus in culture; type: cell-based; details: Mycolicibacterium smegmatis
[7] = tested on: commensal bacteria including Lactobacillus sp. and Bacteroides sp.; type: cell-based
Escherichia coli WO153 = test: microbe, parasite or virus in culture; type: cell-based
wild type E. coli = test: microbe, parasite or virus in culture; type: cell-based; details: Escherichia coli
[8] = tested on: Lactobacillus paracasei KLE 2504; test: microbe, parasite or virus in culture; type: cell-based; details: Lacticaseibacillus paracasei, KLE2504; Lactobacillus paracasei KLE 2504, anaerobic conditions, human stool isolate
FaDu [9] = tested on: FaDu
[10] = type: in vivo, mouse; details: intraperitoneally at 100 mg kg^−1, observed for 24 hours
[11] = tested on: Clostridium perfringens KLE 2523; test: microbe, parasite or virus in culture; type: cell-based; details: KLE2523
[12] = tested on: Streptococcus parasanguinis KLE 2509; test: microbe, parasite or virus in culture; type: cell-based; details: KLE2509; Streptococcus parasanguinis KLE 2509, anaerobic conditions, human stool isolate
HEK293 [13] = test: cells; details: Homo sapiens, HEK293, read-out: Human cell line (IC50)
[14] = tested on: Mycobacterium tuberculosis H37Rv mc^26020 ΔbacA; test: microbe, parasite or virus in culture; type: cell-based
MtbGyrase [15] = biological target: T1, MtbGyrase; test: DNA-stimulated ATPase assay (NADH-coupled); details: 250 nM gyrase, 100 μM drug
[16] = tested on: Lactobacillus reuteri LTH5448; test: microbe, parasite or virus in culture; type: cell-based; details: Limosilactobacillus reuteri; Lactobacillus reuteri LTH5448, anaerobic conditions
[17] = tested on: Salmonella enterica KLE 2601; test: microbe, parasite or virus in culture; type: cell-based; details: KLE2601; Salmonella enterica KLE 2601, anaerobic conditions, human stool isolate
Escherichia coli ΔSbmA = test: microbe, parasite or virus in culture; type: cell-based; details: Keio collection mutant
physchem = details: water
[18] = tested on: Acinetobacter baumannii ATCC 17978; test: microbe, parasite or virus in culture; type: cell-based; details: ATCC17978
M. tuberculosis = test: Microscopy, cell elongation; type: cell-based; details: 10×MIC, 48 hours of treatment
HEK293 [19] = tested on: HEK293
[20] = biological target: E. coli topoisomerase IV (topo IV) (Escherichia coli, UniProt P0AFI2+P20083); type: biochemical; details: 100 μM compound; strong cleavage visible at 5 nM enzyme
[21] = tested on: Mycobacterium tuberculosis H37Rv mc^26020 mCherry; test: microbe, parasite or virus in culture; type: cell-based
MtbGyrase [22] = biological target: T1, MtbGyrase; test: biochemical; parameters: species or system M. tuberculosis; details: 20 nM MtbGyrase
[23] = tested on: Klebsiella pneumoniae ATCC 700603; test: microbe, parasite or virus in culture; type: cell-based; details: ATCC700603
[24] = tested on: Bacteroides stercoris KLE 2537; test: microbe, parasite or virus in culture; type: cell-based; details: KLE2537; Bacteroides stercoris KLE 2537, anaerobic conditions, human stool isolate
E. coli gyrase = E. coli gyrase (Escherichia coli, UniProt P0AES4+P0AES6); type: biochemical; details: 100 μM compound
[25] = tested on: Mycobacterium abscessus ATCC 19977; test: microbe, parasite or virus in culture; type: cell-based; details: Mycobacteroides abscessus, ATCC19977
[26] = tested on: Bacteroides fragilis KLE 2244; test: microbe, parasite or virus in culture; type: cell-based; details: KLE2244; Bacteroides fragilis KLE 2244, anaerobic conditions, human stool isolate
E. coli ATCC 25922 = test: Septicemia model, survival; type: in vivo, mice; details: 1 h after infection
Method: The inventors next tested the compound of Formula IV in a simple model of septicemia infection with E. coli to evaluate its potential for activity in vivo. […] Mice were infected with E. coli ATCC25922 intraperitoneally for 1 hour followed by intraperitoneal administration of the compound of Formula IV.
Animal study was performed at Northeastern University, approved by Northeastern IACUC, and was performed according to institutional animal care and policies. Experiments were not randomized nor blinded, as it was not deemed necessary. Female CD-1 mice (20-25 g, experimentally naive, 6 weeks old) from Charles River were used for all studies. The compound of Formula IV was tested in a septicemia model against E. coli ATCC 25922. Mice were infected with 0.5 ml of E. coli ATCC 25922 suspension in BHI with 5% mucin (1×10^6 to 5×10^6) via intraperitoneal injection. This dose achieves >83% mortality within 24 h after infection. At 1 h after infection, mice were treated by the compound of Formula IV from 10 mg kg^−1 to 100 mg kg^−1 by intraperitoneal injection. Infection control mice were treated with 50 mg kg^−1 gentamicin as positive control. Survival was monitored for 120 h.

[27] = tested on: M. tuberculosis H37Rv mc^26020; test: Time-dependent killing; type: cell-based; details: 10×MIC
[28] = tested on: Pseudomonas aeruginosa PA01; test: microbe, parasite or virus in culture; type: cell-based
Escherichia coli BW25113 = test: microbe, parasite or virus in culture; type: cell-based
Escherichia coli MG1655 = test: microbe, parasite or virus in culture; type: cell-based
[29] = tested on: Veillonella ratti KLE 2365; test: microbe, parasite or virus in culture; type: cell-based; details: KLE2365; Veillonella ratti KLE 2365, anaerobic conditions, human stool isolate
FaDu [30] = test: cells; details: Homo sapiens, read-out: Human cell line (IC50)
E. coli WO153 = test: Macromolecule incorporation assay; type: cell-based; details: 8×MIC
Method: Incorporation of ^14C-thymidine (DNA), ^14C-uridine (RNA), ^14C-L-amino acid mixture (protein), ^14C-acetic acid (fatty acid) and ^14C-acetyl-glucosamine (peptidoglycan) was determined in cells treated with 8×MIC of the compound of Formula IV (grey bars). Ciprofloxacin (8×MIC), rifampicin (8×MIC), chloramphenicol (8×MIC), triclosan (8×MIC) and fosfomycin (8×MIC) were used as controls (white bars). There were n=3 biologically independent samples.
Macromolecular synthesis assay against DNA, RNA, protein and fatty acid were analyzed by ImQuest BioSciences Inc. (MD, USA) with E. coli WO153 cells.

[31] = tested on: Staphylococcus aureus HG003; test: microbe, parasite or virus in culture; type: cell-based
[32] = tested on: Escherichia coli ATCC25922; test: microbe, parasite or virus in culture; type: cell-based
[33] = Mycobacterium tuberculosis, M. tuberculosis H37Rv mc^26020, read-out: MIC

T1 sequence (P9WG45 whole entry, looked up): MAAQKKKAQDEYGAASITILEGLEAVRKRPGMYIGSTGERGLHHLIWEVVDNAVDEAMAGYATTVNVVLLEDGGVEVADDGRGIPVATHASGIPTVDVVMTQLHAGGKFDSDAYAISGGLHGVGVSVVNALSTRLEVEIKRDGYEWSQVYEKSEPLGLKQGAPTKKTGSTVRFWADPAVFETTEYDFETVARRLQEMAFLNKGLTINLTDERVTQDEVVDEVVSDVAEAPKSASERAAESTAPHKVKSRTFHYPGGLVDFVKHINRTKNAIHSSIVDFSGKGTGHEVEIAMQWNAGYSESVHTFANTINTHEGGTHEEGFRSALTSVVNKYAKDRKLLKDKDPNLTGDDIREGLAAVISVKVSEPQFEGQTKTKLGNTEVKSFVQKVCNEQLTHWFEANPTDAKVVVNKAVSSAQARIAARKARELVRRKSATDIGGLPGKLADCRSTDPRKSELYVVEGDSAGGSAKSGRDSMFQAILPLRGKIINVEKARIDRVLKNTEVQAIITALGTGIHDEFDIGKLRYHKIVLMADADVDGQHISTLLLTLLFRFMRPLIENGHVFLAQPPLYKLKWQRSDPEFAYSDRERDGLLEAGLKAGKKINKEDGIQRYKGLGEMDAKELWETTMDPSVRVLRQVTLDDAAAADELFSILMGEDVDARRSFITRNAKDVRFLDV
T1 sequence (P9WG47 whole entry, looked up): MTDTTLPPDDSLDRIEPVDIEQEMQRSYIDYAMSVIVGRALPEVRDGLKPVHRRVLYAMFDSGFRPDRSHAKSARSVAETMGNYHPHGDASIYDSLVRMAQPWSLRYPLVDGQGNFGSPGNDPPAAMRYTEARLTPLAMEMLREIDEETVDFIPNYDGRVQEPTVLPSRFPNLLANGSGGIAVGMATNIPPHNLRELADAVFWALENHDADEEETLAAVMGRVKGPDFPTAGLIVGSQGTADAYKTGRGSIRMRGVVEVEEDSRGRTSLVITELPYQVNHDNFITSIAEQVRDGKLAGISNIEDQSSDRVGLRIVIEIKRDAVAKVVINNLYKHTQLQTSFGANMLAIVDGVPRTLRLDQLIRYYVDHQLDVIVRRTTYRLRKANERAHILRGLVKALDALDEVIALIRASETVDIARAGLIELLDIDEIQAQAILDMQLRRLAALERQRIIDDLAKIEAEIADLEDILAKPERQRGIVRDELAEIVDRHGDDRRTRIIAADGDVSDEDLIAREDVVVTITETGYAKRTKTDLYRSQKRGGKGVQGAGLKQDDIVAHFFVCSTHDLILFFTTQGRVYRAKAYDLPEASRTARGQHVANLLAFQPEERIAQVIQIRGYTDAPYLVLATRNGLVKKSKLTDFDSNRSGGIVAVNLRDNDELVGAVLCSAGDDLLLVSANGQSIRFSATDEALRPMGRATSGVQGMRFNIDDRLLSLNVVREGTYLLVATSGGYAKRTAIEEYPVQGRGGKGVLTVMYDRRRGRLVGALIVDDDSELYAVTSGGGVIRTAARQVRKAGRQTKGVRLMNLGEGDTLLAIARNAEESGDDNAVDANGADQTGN
Chain of E. coli gyrase (P0AES4 whole entry, one chain of several): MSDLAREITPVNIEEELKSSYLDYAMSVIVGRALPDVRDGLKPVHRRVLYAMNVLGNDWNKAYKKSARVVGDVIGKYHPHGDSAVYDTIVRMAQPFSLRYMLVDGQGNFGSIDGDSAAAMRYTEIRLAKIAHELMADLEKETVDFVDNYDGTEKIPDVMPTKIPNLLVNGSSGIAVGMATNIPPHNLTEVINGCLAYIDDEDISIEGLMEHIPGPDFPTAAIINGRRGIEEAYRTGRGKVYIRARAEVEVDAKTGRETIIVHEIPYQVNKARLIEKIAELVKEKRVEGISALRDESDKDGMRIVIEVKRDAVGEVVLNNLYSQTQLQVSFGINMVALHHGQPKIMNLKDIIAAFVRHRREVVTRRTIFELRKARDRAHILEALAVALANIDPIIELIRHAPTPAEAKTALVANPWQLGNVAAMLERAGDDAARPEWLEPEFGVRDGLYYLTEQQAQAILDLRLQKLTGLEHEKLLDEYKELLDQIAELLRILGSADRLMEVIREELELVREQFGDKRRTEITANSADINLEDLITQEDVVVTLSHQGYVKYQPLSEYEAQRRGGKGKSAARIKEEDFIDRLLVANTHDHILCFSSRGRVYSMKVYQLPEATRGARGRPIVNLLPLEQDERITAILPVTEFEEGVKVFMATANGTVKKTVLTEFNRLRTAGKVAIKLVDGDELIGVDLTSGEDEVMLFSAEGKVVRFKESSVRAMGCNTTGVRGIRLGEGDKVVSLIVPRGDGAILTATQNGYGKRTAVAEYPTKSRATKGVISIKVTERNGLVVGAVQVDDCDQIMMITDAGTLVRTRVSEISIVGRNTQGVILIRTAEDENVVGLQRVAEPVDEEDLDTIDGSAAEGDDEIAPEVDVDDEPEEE
Chain of E. coli topoisomerase IV (topo IV) (P20083 whole entry): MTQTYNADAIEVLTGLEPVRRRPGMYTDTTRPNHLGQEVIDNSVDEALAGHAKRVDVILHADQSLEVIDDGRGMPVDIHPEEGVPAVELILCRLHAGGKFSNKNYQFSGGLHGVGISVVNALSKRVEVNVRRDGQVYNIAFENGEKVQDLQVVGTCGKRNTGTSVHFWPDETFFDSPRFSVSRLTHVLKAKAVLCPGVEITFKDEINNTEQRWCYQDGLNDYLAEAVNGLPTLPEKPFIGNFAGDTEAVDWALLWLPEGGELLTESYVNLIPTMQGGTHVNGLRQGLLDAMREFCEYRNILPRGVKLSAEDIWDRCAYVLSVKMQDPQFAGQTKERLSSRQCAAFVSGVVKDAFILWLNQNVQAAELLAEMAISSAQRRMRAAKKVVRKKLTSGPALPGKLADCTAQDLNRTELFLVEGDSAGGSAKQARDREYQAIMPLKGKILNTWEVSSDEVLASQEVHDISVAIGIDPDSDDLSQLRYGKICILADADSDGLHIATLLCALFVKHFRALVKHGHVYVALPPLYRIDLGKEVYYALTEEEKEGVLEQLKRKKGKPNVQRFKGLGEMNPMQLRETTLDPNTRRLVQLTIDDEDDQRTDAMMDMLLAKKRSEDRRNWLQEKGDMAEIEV
Chain of E. coli topoisomerase IV (topo IV) (P0AFI2 whole entry): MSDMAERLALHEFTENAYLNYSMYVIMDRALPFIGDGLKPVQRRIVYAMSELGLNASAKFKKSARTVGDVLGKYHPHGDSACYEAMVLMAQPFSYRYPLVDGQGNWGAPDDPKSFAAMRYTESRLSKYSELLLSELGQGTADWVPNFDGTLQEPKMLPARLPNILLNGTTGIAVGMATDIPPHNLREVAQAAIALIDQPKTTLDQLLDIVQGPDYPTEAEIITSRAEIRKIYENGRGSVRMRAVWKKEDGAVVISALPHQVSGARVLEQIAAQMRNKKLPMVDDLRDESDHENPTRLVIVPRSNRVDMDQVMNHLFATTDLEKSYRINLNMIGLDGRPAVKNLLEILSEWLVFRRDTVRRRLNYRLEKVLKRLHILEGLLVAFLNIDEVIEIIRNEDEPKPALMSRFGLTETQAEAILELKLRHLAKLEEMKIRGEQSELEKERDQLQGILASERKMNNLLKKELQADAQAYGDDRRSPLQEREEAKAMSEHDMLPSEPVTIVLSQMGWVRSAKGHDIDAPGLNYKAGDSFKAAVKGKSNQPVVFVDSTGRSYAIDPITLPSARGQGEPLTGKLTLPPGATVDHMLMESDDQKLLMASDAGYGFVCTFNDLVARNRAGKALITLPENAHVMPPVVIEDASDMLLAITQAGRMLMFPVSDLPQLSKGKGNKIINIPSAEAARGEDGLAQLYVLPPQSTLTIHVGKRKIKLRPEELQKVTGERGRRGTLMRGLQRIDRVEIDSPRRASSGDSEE

**Q.** With `COc1c(N2C[C@@H]3CCCN[C@@H]3C2)c(F)cc2c(=O)c(C(=O)O)cn(C3CC3)c12` [Moxifloxacin, reference compound] as the molecule, how does the MIC [1, 33] read?
**A.** 0.125 µg/mL (≈ 0.311 µM)

**Q.** What does the source list for `C[C@H]1OC(=O)C[C@@H](C(=O)O)NC(=O)[C@H](CO)NC(=O)[C@@H](CCCNC(=N)N)NC(=O)CNC(=O)[C@H](Cc2ccccc2)NC(=O)[C@@H](CO)NC(=O)C[C@@H](C(=O)O)NC(=O)[C@H](Cc2cncn2C)NC(=O)C1NC(=O)[C@@H](CCCNC(=N)N)NC(=O)[C@@H](NC(=O)[C@H](Cc1c[nH]c2ccccc12)NC=O)[C@@H](C)O` (stereo partly drawn) [compound of Formula IV] (For-WT[dR][ξThr(3R)(O-yl)][His(π-Me)][βAsp][dS]FG[dR]SD-OH; ester 4-12)?
**A.** MIC [2]: > 128 µg/mL; DNA cleavage by MtbGyrase (MtbGyrase [3]): induced DNA cleavage; supercoiling activity of MtbGyrase (MtbGyrase [3]): inhibited the supercoiling activity; toxicity against human cell line (HepG2 [4]): no toxicity; IC50 (HepG2 [5]): > 128 µg/mL; MIC of tolC deletion mutant, times higher as compared to E. coli WO153 (Escherichia coli ΔtolC): 4 times; MIC of tolC deletion mutant, times lower than in the wild type (Escherichia coli ΔtolC): 64 times; MIC (Escherichia coli ΔtolC; Escherichia coli ΔtolC, Keio collection mutant): 0.25 µg/mL; MIC (Escherichia coli ΔtolC; Escherichia coli, E. coli tolC deletion mutant, read-out: MIC): 0.25 µg/mL; MIC [6]: 8 µg/mL; activity against commensal bacteria [7]: no activity; MIC (Escherichia coli WO153; Escherichia coli WO153): 0.0625 µg/mL; MIC (Escherichia coli WO153; Escherichia coli, E. coli WO153, compromised penetration barrier, read-out: MIC): 0.0625 µg/mL; MIC (wild type E. coli): 16 µg/mL; MIC [8]: > 128 µg/mL; toxicity against human cell line (FaDu [9]): no toxicity; toxicity in a mouse, survival [10]: no indications of toxicity; MIC [11]: 64 µg/mL; MIC [12]: > 128 µg/mL; IC50 (HEK293 [13]): > 128 µg/mL; MIC [14]: 16 µg/mL; overall rate (vmax) of ATPase activity (MtbGyrase [15]): 45±7.2 ATP·s^−1 per enzyme; MIC [16]: > 128 µg/mL; MIC [17]: 128 µg/mL; MIC (Escherichia coli ΔSbmA): 128 µg/mL; solubility (physchem): > 40 mg/mL; MIC [18]: 128 µg/mL; cell length compared to nontreated cells (M. tuberculosis): approximately 2 times; toxicity against human cell line (HEK293 [19]): no toxicity; DNA cleavage by E. coli topo IV [20]: stimulated DNA cleavage; MIC [21]: 0.0625 µg/mL; DNA cleavage in the absence of ATP (MtbGyrase [22]; absence of ATP): little to no cleavage; IC50 (MtbGyrase [22]; in the presence of ATP): ~1000 nM; MIC [23]: 32 µg/mL; MIC [24]: > 128 µg/mL; inhibition of DNA supercoiling by gyrase compared with supercoil relaxation by topo IV (E. coli gyrase): more potent inhibitor of DNA supercoiling by gyrase; DNA cleavage by E. coli gyrase (E. coli gyrase; strong cleavage visible at 5 nM enzyme): stimulated DNA cleavage; MIC ([1]; Mycobacterium tuberculosis H37Rv mc^26020): 0.25 µg/mL; MIC [1, 33]: 0.25 µg/mL; MIC [25]: 16 µg/mL; MIC [26]: 64 µg/mL; efficacy, septicemia infection with E. coli ATCC25922 (E. coli ATCC 25922; 100 mg kg^−1 dose intraperitoneal): completely protected; efficacy, septicemia infection with E. coli ATCC25922 (E. coli ATCC 25922; single dose of 25 mg kg^−1 intraperitoneal): significant efficacy; killing of exponentially growing M. tuberculosis ([27]; exponential cells): highly bactericidal; killing of stationary M. tuberculosis ([27]; stationary cells): highly bactericidal; MIC [28]: > 128 µg/mL; MIC (Escherichia coli BW25113): 16 µg/mL; MIC (Escherichia coli MG1655): 16 µg/mL; MIC [29]: > 128 µg/mL; IC50 (FaDu [30]): > 128 µg/mL; effect on DNA synthesis (^14C-thymidine incorporation) (E. coli WO153): inhibits DNA synthesis; effect on RNA, protein and fatty acid synthesis (E. coli WO153): less of an effect; MIC [31]: 128 µg/mL; MIC [32]: 8 µg/mL
